# Columns and labels:
# K. pneumoniae = test: Bacterial susceptibility testing, MIC by broth microdilution (CLSI); format: cell-based; details: 35° C., 18-24 h
# Procedure: (§1) Minimal inhibitory concentrations (MIC) were determined by the broth microdilution method in accordance with the Clinical and Laboratory Standards Institute (CLSI) guidelines. In brief, organism suspensions were adjusted to a 0.5 McFarland standard to yield a final inoculum between 3×10^3 and 7×10^5 colony-forming units (CFU)/mL. Drug dilutions and inocula were made in sterile, cation adjusted Mueller-Hinton Broth (Beckton Dickinson). An inoculum volume of 100 μL was added to wells containing 100 μL of broth with 2-fold serial dilutions of drug.
# E. coli = test: as above; details: broth microdilution, 35° C., 18-24 h
# Procedure: as §1
smiles,measurement,setting,value
O=c1[nH]cnc(CC(CO)c2ccc(C#Cc3ccc(CN4CCNCC4)cc3)cc2)c1O (centres unmarked) [Compound 55],K. pneumoniae MIC,K. pneumoniae,D (D: >32 μg/mL)
same,E. coli MIC,E. coli,B (B: >1 μg/mL to ≤8.0 μg/mL)

# — patent publication US11407740B2 (priority 2018, dated 2022)
